Converted amounts (≈) assume the structure as drawn. Like-named read-outs stand apart in the source and are kept apart here.
How the values were obtained:
[1] = test system: human colon cancer HCT-116 cells; test: Antitumor effect of sulfasalazine in mice bearing subcutaneous HCT-116 tumors; type: in vivo, KSN nude mice; details: 250 mg/kg intraperitoneally once per day; Days 14 and 28 after transplantation; versus saline control; FIG. 1
Protocol: The human colon cancer HCT-116 cells that proliferate in a CD44v-dependent manner were administered subcutaneously to KSN nude mice to form tumors. The cells were transplanted into 10 mice. 250 mg/kg of sulfasalazine or 100 μl of saline was injected to each of groups of 5 mice intraperitoneally once per day. Diameter of tumors was measured on Days 14 and 28 after transplantation and their weights were calculated based on the diameters and compared between the two groups.

[2] = Solubility test in pure water and saline (UV absorption at 238 nm); type: physicochemical; details: thermodynamic from solid, room temperature, PEGylated values calculated as sulfasalazine
Protocol: The aqueous solutions thus obtained were centrifuged at 8000 rpm for 30 minutes at room temperature, and 50 μL of each supernatant was taken. One microliter of 5N NaOH solution was added to the supernatant and UV absorption (at 238 nm) was measured for the resulting solution, thereby sulfasalazine concentration in the solution (solubility in pure water and saline) was calculated.

T98G cell line = details: 0 to 1250 μM calculated as sulfasalazine, two days, FIG. 6
Protocol: Using the same medium as in (3), the T98G cell line was seeded onto 96-well plates at 3,000 cells/well. On the next day, sulfasalazine and the type-A PEGylated sulfasalazines were added at 0 to 1250 μM calculated in concentrations of sulfasalazine. Two days later, cell viability was measured using a CellTiter-Glo (Promega).

**Q.** With `O=C(O)c1cc(/N=N/c2ccc(S(=O)(=O)Nc3ccccn3)cc2)ccc1O` [Sulfasalazine] as the compound, how does the “tumor growth (tumor weight calculated from diameter)” value [1] read?
**A.** significantly slower

**Q.** What about the solubility ([2]; pure water, water, read-out: Saturated solubility, pure water) of the same compound?
**A.** 50 µg/mL (≈ 126 µM)

**Q.** And the solubility ([2]; saline, saline or isotonic, read-out: Saturated solubility, saline)?
**A.** 37 µg/mL (≈ 92.9 µM)

**Q.** What about the “cell viability, concentration dependence (cytotoxicity)” value (T98G cell line) of the same compound?
**A.** substantially identical concentration dependence

Source: patent publication US11376266B2, “Antitumor agent” (KEIO UNIVERSITY, priority 2016, dated 2022)
